Measured values as given in PMC7402526, “An in vitro quantitative systems pharmacology approach for deconvolving mechanisms of drug-induced, multilineage cytopenias” (PLoS Computational Biology, 2020).

Columns and labels:
[1] = test system: total dead cells (totalDeadCells); assay: MLTA, total dead cells concentration-response; assay type: cell-based; conditions: Homo sapiens, 144 h, 6 days, normalized to vehicle control, read-out: total_dead normalized cell count
How it was run: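 Freeze-thawed primary human bone marrow CD34+ cells in SFEM II with cytokine cocktail, drug added day 0, 6 days at 37°C, 5% CO2. Live/dead counts by 17-parameter flow cytometry with DAPI exclusion, bead-normalized, volume-corrected to cells/mL. Normalized per donor to mean of six vehicle wells; 2–7 donors pooled.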

[2] = test system: lymphocyte progenitors (LymP); assay: MLTA, LymP: concentration-response and QSP model fit; assay type: cell-based, human; conditions: Homo sapiens, Lymphocyte, 144 h
How it was run: (§1)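 Drug was added at time 0 to thawed human bone marrow CD34+ cells in SFEM II plus a cytokine cocktail. After 6 days at 37°C, subsets were counted by surface-marker flow with TruCount beads. Vehicle-normalized, donor-pooled data then fed an Emax model separating anti-proliferative from cell-killing effects.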

monocytes (monocyte-lin) = assay: MLTA, Mono: concentration-response and QSP model fit; assay type: cell-based, human; conditions: Homo sapiens, Monocyte, 144 h
How it was run: (§2)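 Freeze-thawed primary human bone marrow CD34+ cells were grown in SFEM II with a multi-lineage cytokine cocktail, drug added day 0, six days at 37°C. Lineage counts came from 17-parameter flow with TruCount beads, vehicle-normalized per donor, then fitted by an Emax-based QSP model.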

[3] = test system: hematopoietic stem cells (HSCs); assay: Multi-lineage toxicity assay (MLTA), HSCs: concentration-response and QSP model fit; assay type: cell-based, human; design: EmaxAP,HSC / EmaxT,HSC / Emax_drug_HSC: unitless, 0–2; ≤1 anti-proliferative, >1 adds cell killing
How it was run: as §1

granulocytes (Gran-lin) = assay: MLTA, Gran: concentration-response and QSP model fit; assay type: cell-based, human; conditions: Homo sapiens, 144 h
How it was run: as §2

MK cells (MK-lin) = assay: MLTA, MK: concentration-response and QSP model fit; assay type: cell-based, human; conditions: Homo sapiens, 144 h
How it was run: as §1

B cells (B-lin) = assay: MLTA, B-lin: concentration-response and QSP model fit; assay type: cell-based, human; conditions: Homo sapiens, B-cell, 144 h
How it was run: as §1

[4] = test system: granulocyte-macrophage progenitor (GMPs); assay: MLTA, GMPs: concentration-response and QSP model fit; assay type: cell-based, human; conditions: Homo sapiens, 144 h
How it was run: as §1

[5] = QSP model fit of 6-day MLTA data

Which results are given for `CC(=O)c1c(C)c2cnc(Nc3ccc(N4CCNCC4)cn3)nc2n(C2CCCC2)c1=O` [palbociclib]?
activity at 0.0002 µM ([1]; dose 0.2 nM): 101%; activity at 0.001 µM ([1]; dose 1 nM): 102%; activity at 0.005 µM ([1]; dose 5 nM): 103%; activity at 0.025 µM ([1]; dose 25 nM): 64.6%; activity at 0.1 µM ([1]; dose 100 nM): 40.5%; activity at 0.5 µM ([1]; dose 500 nM): 28.9%; activity at 2.5 µM ([1]; dose 2500 nM): 22.7%; activity at 0.0002 µM ([2]; dose 0.2 nM, 6 days, normalized to vehicle control, read-out: LymP normalized cell count): 86.1%; activity at 0.001 µM ([2]; dose 1 nM, 6 days, normalized to vehicle control, read-out: LymP normalized cell count): 88%; activity at 0.005 µM ([2]; dose 5 nM, 6 days, normalized to vehicle control, read-out: LymP normalized cell count): 73.1%; activity at 0.025 µM ([2]; dose 25 nM, 6 days, normalized to vehicle control, read-out: LymP normalized cell count): 38%; activity at 0.1 µM ([2]; dose 100 nM, 6 days, normalized to vehicle control, read-out: LymP normalized cell count): 12.4%; activity at 0.5 µM ([2]; dose 500 nM, 6 days, normalized to vehicle control, read-out: LymP normalized cell count): 5.18%; activity at 2.5 µM ([2]; dose 2500 nM, 6 days, normalized to vehicle control, read-out: LymP normalized cell count): 4.62%; Emax ([2]; parameter from QSP model fitting, read-out: Emax_drug_LymP): 0.032%; EC50 (monocytes (monocyte-lin); [5]): 39.3 nM; activity at 0.0002 µM (monocytes (monocyte-lin); dose 0.2 nM, 6 days, normalized to vehicle control, read-out: Mon normalized cell count): 90%; activity at 0.001 µM (monocytes (monocyte-lin); dose 1 nM, 6 days, normalized to vehicle control, read-out: Mon normalized cell count): 106%; activity at 0.005 µM (monocytes (monocyte-lin); dose 5 nM, 6 days, normalized to vehicle control, read-out: Mon normalized cell count): 89.9%; activity at 0.025 µM (monocytes (monocyte-lin); dose 25 nM, 6 days, normalized to vehicle control, read-out: Mon normalized cell count): 58.8%; activity at 0.1 µM (monocytes (monocyte-lin); dose 100 nM, 6 days, normalized to vehicle control, read-out: Mon normalized cell count): 25.6%; activity at 0.5 µM (monocytes (monocyte-lin); dose 500 nM, 6 days, normalized to vehicle control, read-out: Mon normalized cell count): 13.2%; activity at 2.5 µM (monocytes (monocyte-lin); dose 2500 nM, 6 days, normalized to vehicle control, read-out: Mon normalized cell count): 23.9%; Emax (monocytes (monocyte-lin); parameter from QSP model fitting, read-out: Emax_drug_Mono): 14.2%; EC50 ([3]; Homo sapiens, Hematopoietic stem cell, 144 h, QSP model fit of 6-day MLTA data): 166 nM; activity at 0.0002 µM ([3]; Homo sapiens, Hematopoietic stem cell, 144 h, dose 0.2 nM, 6 days, normalized to vehicle control, read-out: HSCs normalized cell count): 89.4%; activity at 0.001 µM ([3]; Homo sapiens, Hematopoietic stem cell, 144 h, dose 1 nM, 6 days, normalized to vehicle control, read-out: HSCs normalized cell count): 92%; activity at 0.005 µM ([3]; Homo sapiens, Hematopoietic stem cell, 144 h, dose 5 nM, 6 days, normalized to vehicle control, read-out: HSCs normalized cell count): 98.5%; activity at 0.025 µM ([3]; Homo sapiens, Hematopoietic stem cell, 144 h, dose 25 nM, 6 days, normalized to vehicle control, read-out: HSCs normalized cell count): 83.4%; activity at 0.1 µM ([3]; Homo sapiens, Hematopoietic stem cell, 144 h, dose 100 nM, 6 days, normalized to vehicle control, read-out: HSCs normalized cell count): 48.9%; activity at 0.5 µM ([3]; Homo sapiens, Hematopoietic stem cell, 144 h, dose 500 nM, 6 days, normalized to vehicle control, read-out: HSCs normalized cell count): 25%; activity at 2.5 µM ([3]; Homo sapiens, Hematopoietic stem cell, 144 h, dose 2500 nM, 6 days, normalized to vehicle control, read-out: HSCs normalized cell count): 9.86%; Emax ([3]; Homo sapiens, Hematopoietic stem cell, 144 h, parameter from QSP model fitting, read-out: Emax_drug_HSC): 77.6%; EmaxAP,HSC ([3]; anti-proliferation component, min(1, EmaxT)): 0.776; activity at 0.0002 µM (granulocytes (Gran-lin); dose 0.2 nM, 6 days, normalized to vehicle control, read-out: Gran normalized cell count): 94.7%; activity at 0.001 µM (granulocytes (Gran-lin); dose 1 nM, 6 days, normalized to vehicle control, read-out: Gran normalized cell count): 93.9%; activity at 0.005 µM (granulocytes (Gran-lin); dose 5 nM, 6 days, normalized to vehicle control, read-out: Gran normalized cell count): 88.2%; activity at 0.025 µM (granulocytes (Gran-lin); dose 25 nM, 6 days, normalized to vehicle control, read-out: Gran normalized cell count): 53.9%; activity at 0.1 µM (granulocytes (Gran-lin); dose 100 nM, 6 days, normalized to vehicle control, read-out: Gran normalized cell count): 21.5%; activity at 0.5 µM (granulocytes (Gran-lin); dose 500 nM, 6 days, normalized to vehicle control, read-out: Gran normalized cell count): 4.56%; activity at 2.5 µM (granulocytes (Gran-lin); dose 2500 nM, 6 days, normalized to vehicle control, read-out: Gran normalized cell count): 0.37%; Emax (granulocytes (Gran-lin); parameter from QSP model fitting, read-out: Emax_drug_Gran): 0.0335%; EC50 (MK cells (MK-lin); [5]): 759 nM; activity at 0.0002 µM (MK cells (MK-lin); dose 0.2 nM, 6 days, normalized to vehicle control, read-out: MK normalized cell count): 86%; activity at 0.001 µM (MK cells (MK-lin); dose 1 nM, 6 days, normalized to vehicle control, read-out: MK normalized cell count): 96.6%; activity at 0.005 µM (MK cells (MK-lin); dose 5 nM, 6 days, normalized to vehicle control, read-out: MK normalized cell count): 89.1%; activity at 0.025 µM (MK cells (MK-lin); dose 25 nM, 6 days, normalized to vehicle control, read-out: MK normalized cell count): 91.2%; activity at 0.1 µM (MK cells (MK-lin); dose 100 nM, 6 days, normalized to vehicle control, read-out: MK normalized cell count): 62.2%; activity at 0.5 µM (MK cells (MK-lin); dose 500 nM, 6 days, normalized to vehicle control, read-out: MK normalized cell count): 23.6%; activity at 2.5 µM (MK cells (MK-lin); dose 2500 nM, 6 days, normalized to vehicle control, read-out: MK normalized cell count): 7.89%; Emax (MK cells (MK-lin); parameter from QSP model fitting, read-out: Emax_drug_MK): 7.37%; EC50 (B cells (B-lin); [5]): 90.6 nM; activity at 0.0002 µM (B cells (B-lin); dose 0.2 nM, 6 days, normalized to vehicle control, read-out: B-lin normalized cell count): 93.4%; activity at 0.001 µM (B cells (B-lin); dose 1 nM, 6 days, normalized to vehicle control, read-out: B-lin normalized cell count): 106%; activity at 0.005 µM (B cells (B-lin); dose 5 nM, 6 days, normalized to vehicle control, read-out: B-lin normalized cell count): 76.6%; activity at 0.025 µM (B cells (B-lin); dose 25 nM, 6 days, normalized to vehicle control, read-out: B-lin normalized cell count): 67.3%; activity at 0.1 µM (B cells (B-lin); dose 100 nM, 6 days, normalized to vehicle control, read-out: B-lin normalized cell count): 41.4%; activity at 0.5 µM (B cells (B-lin); dose 500 nM, 6 days, normalized to vehicle control, read-out: B-lin normalized cell count): 13.8%; activity at 2.5 µM (B cells (B-lin); dose 2500 nM, 6 days, normalized to vehicle control, read-out: B-lin normalized cell count): 8.85%; Emax (B cells (B-lin); parameter from QSP model fitting, read-out: Emax_drug_B): 49.9%; EC50 [4, 5]: 54.6 nM; activity at 0.0002 µM ([4]; dose 0.2 nM, 6 days, normalized to vehicle control, read-out: GMPs normalized cell count): 92.3%; activity at 0.001 µM ([4]; dose 1 nM, 6 days, normalized to vehicle control, read-out: GMPs normalized cell count): 94.2%; activity at 0.005 µM ([4]; dose 5 nM, 6 days, normalized to vehicle control, read-out: GMPs normalized cell count): 92.5%; activity at 0.025 µM ([4]; dose 25 nM, 6 days, normalized to vehicle control, read-out: GMPs normalized cell count): 76.3%; activity at 0.1 µM ([4]; dose 100 nM, 6 days, normalized to vehicle control, read-out: GMPs normalized cell count): 53.9%; activity at 0.5 µM ([4]; dose 500 nM, 6 days, normalized to vehicle control, read-out: GMPs normalized cell count): 23.9%; activity at 2.5 µM ([4]; dose 2500 nM, 6 days, normalized to vehicle control, read-out: GMPs normalized cell count): 4.62%
